Biological target: T1, rat EP3 receptor (Rattus norvegicus, UniProt P34980)
T1 construct: expressed in transfected cells
T1 sequence (P34980 1-365): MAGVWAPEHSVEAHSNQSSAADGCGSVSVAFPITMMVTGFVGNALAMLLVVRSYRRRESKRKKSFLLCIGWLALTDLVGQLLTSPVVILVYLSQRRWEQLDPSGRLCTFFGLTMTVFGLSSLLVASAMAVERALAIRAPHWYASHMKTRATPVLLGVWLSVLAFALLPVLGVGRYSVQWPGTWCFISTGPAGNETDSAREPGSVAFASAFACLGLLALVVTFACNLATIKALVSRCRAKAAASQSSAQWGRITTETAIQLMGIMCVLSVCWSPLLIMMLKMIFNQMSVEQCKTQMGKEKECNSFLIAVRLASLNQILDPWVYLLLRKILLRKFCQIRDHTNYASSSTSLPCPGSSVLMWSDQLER
Assay: Selectivity test: antagonistic action on rat EP3 receptor (intracellular Ca2+, HEK-293 cells)
Assay type: cell-based
Conditions: PGE2 100 nmol/L, HEK-293 cells stably expressing rat EP3; read-out: Concentration up to which no inhibitory action of 50% or more on the increase in intracellular Ca2+ concentration due to PGE2 through the rat EP3 receptor
Method: Test Example 9: Evaluation Test of Receptor Antagonistic Action on Rat EP1/EP2/EP3 Receptor (Selectivity Test)
The antagonistic action of Compound A on other subtypes ([…], EP2, and EP3) of the rat-derived PGE2 receptor was evaluated. For EP1 and EP3, the intracellular Ca^2+ amount was used as an indicator, and for EP2, the intracellular cAMP amount was used as an indicator, so as to investigate the action of the test compound.
Construction of Rat EP1, EP2, or EP3 Receptor Expressing Vector: A rat EP1 receptor gene (GenBank accession No.: D88751.1), a rat EP2 receptor gene (GenBank accession No.: NM_031088.1), or a rat EP3 receptor gene (GenBank accession No.: NM_012704.1) were inserted respectively into an expression vector pcDNA3.1-V5-His-TOPO (Invitrogen Inc.).
Construction of Cell Stably Expressing Rat EP1, EP2, or EP3 Receptor: […]
The intracellular Ca^2+ concentration was measured using FLIPR tetra (Molecular Devices, LLC.) with the fluorescence intensity of the Dye as an indicator. […] By taking the Ca^2+ concentration when PGE2 was added to a final concentration of 100 nmol/L as 100%, and taking the Ca^2+ concentration when PGE2 was not added as 0%, the Ca^2+ concentration in percentage with a treatment with the compound was calculated.

Question: Which IC50 does the source give for `Cc1nn(Cc2cc3ccccc3cn2)c(C(=O)N[C@@H](C)c2ccc(C(=O)O)cc2)c1Br` [Compound A, 4-[(1S)-1-({[4-bromo-1-(isoquinolin-3-ylmethyl)-3-methyl-1H-pyrazol-5-yl]carbonyl}amino)ethyl]benzoic acid] here?
Answer: The IC50 was > 10 µM.

From US10106523B2, “Amide compound” (ASTELLAS PHARMA INC., priority 2014, dated 2018)
